The values below come from patent US20260294893A1, “NOVEL RAS INHIBITORS” (KHR Biotec GmbH, priority 2022, published 2026).

Data set [1] relates to NCI-H358. Kind of data set: Soft agar colony formation assay, MTT. The conditions noted are these: Homo sapiens, 3 independent experiments. The data set is classed as cell-based. As to the method:
(§1) FIGS. 2a), 2b) and 2c): MTT assay for cell growth
(§2) Metabolic activity was quantified using Cell Proliferation Kit I (Roche, Basel, Switzerland). Cells were seeded in 96-well cell culture plates, using 5000 cells per well for NCI-H358 cells. After treatment, 10 μl of MTT solution was added and incubated for 2 h in CO2 incubator. Then 100 μl of solubilization buffer was added to each well and incubated overnight in CO2 incubator. Cell viability, assessed by the amount of metabolized MTT, was quantified by measuring absorbance at 570 nm.
(§3) MTT assay for the growth of different tumour cell lines with RAS mutations in soft agar with Sanguinarine chloride. Shown are data from three independent experiments. NCI-H358, H358, H2122, ASPC-1, HCT-116, T24 and HT1080 cells were used for the soft agar colony formation assay. After the treatment with Sanguinarine chloride, the colonies were stained with MTT and the value was quantified by measuring absorbance at 570 nm after solubilization. The results represent mean±SEM from 3 independent experiments.
(§4) HeLa S3 (DSMZ) were authenticated by Eurofin genomics and cultured in DMEM (10% heat inactivated FBS). NCI-H358 cells were cultured in RPMI-1640 (10% heat inactivated FBS).

The target in data set [2] is T1, KRAS G12V (Homo sapiens, UniProt P01116, G12V).
T1 construct: CRAF RBD (1-149) fused to SmBiT; transfected cells
T1 sequence (P01116 1-188 isoform P01116-2 G12V): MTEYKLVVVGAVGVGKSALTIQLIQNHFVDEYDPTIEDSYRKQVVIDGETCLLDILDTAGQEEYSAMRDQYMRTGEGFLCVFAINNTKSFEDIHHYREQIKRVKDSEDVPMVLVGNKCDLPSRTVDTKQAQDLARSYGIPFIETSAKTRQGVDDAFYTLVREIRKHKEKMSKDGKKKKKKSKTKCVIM
Kind of data set: NanoBit assay for RAS activation (LgBiT-KRAS G12V / SmBiT-CRAF RBD). The data set is classed as cell-based. The settings on record: 2 h with inhibitor, serum free DMEM. As for the experimental part:
(§5) FIGS. 1a), 1b) and 1c): NanoBit assay for RAS activation (KRAS G12V, NRAS G12V, HRAS G12V)
(§6) N-terminal LgBiT and C-terminal SmBiT construct was purchased from Promega and K, N and HRAS G12V (full length) was cloned with Xho I and Bgl II to LgBit and CRAF Ras binding domain (1-149) was cloned with EcoRI and Bgl II to SmBit. For transfections, 1 μg or 2 μg of (12 well/6 well) plasmids were transfected into cells with 0.5 mM of PEI reagent in 100 μl or 200 μl PBS. One day after transfection, cells were harvested and seeded into 96 well white plates, half area (Greiner). After an additional day the medium was changed to serum free DMEM and the cells were incubated for 2 h with inhibitor. NanoGlo assay was performed according to the manufacturer's instructions. The luminescence was measured using Tecan infinite (Tecan).
as §4

Data set [3] addresses T2, NRAS G12V (Homo sapiens, UniProt P01111, G12V).
T2 construct: CRAF RBD (1-149) fused to SmBiT; transfected cells (HeLa S3 likely), NanoBiT
Briefly: NanoBit assay for RAS activation (LgBiT-NRAS G12V / SmBiT-CRAF RBD). The data set is classed as cell-based. The settings on record: 2 h with inhibitor, serum free DMEM. As for the experimental part:
as §5, §6, §4

In data set [4] the test system is different RAS-isoform addicted cell-lines. Briefly: Soft agar colony formation assay, MTT. The data set is classed as cell-based. As for the experimental part: as §1, §2, §3
Data set [5] concerns HCT-116. Kind of data set: Soft agar colony formation assay, MTT. The data set is classed as cell-based. The conditions noted are these: Homo sapiens; HCT-116, soft agar, 3 independent experiments. As to the method: as §1, §2, §3
Data set [6] concerns T24. Kind of data set: Soft agar colony formation assay, MTT. The data set is classed as cell-based. The conditions noted are these: Homo sapiens, T-24, 3 independent experiments. As for the experimental part: as §1, §2, §3
The test system of data set [7] is ASPC1. Kind of data set: Soft agar colony formation assay, MTT. The data set is classed as cell-based. The conditions noted are these: Homo sapiens, 3 independent experiments. As for the experimental part: as §1, §2, §3
For data set [8], the system named is HT1080. Kind of data set: Soft agar colony formation assay, MTT. The data set is classed as cell-based. The conditions noted are these: Homo sapiens, HT-1080, 3 independent experiments. As for the experimental part:
as §1, §2, §3

The subject of data set [9] is NCI-H2122. Kind of data set: Soft agar colony formation assay, MTT. In kind it is cell-based. The settings on record: Homo sapiens, 3 independent experiments. As for the experimental part:
as §1, §2, §3

Data set [10] has as its system KRAS mutants (G12V, G12C, G12D, G12C/Y96D, G13C, G13D, G13S, Q61K and Q61R). Kind of data set: NanoBiT assay for the RAS GTP-loading in HeLa cells transfected with LgBit-KRAS mutants and SmBit-CRAF-RBD. The settings on record: 2 h, serum-free DMEM. In kind it is cell-based. As to the method: NanoBiT assay for the RAS GTP-loading was performed in HeLa cells transfected with LgBit-KRAS mutants and SmBit-CRAF-RBD. Cells were treated with Sanguinarine chloride for 2 h in serum-free DMEM. After incubation, the substrate for NanoLuc was added, and the luminescence was measured in a multiplate reader. Data were normalized to cells transfected with the indicated mutant and exposed to DMSO for 2 h. DMSO-treated cells were set as 1. The bars represent mean±SEM from 3 independent experiments.
as §4

Data set [11] deals with BaF3 KRAS G12C/Y96D. Kind of data set: MTT assay for cell viability. The settings on record: Mus musculus, 48 h, 3 independent experiments. The data set is classed as cell-based. As to the method:
(§7) FIGS. 4a) and 4b): MTT assay for cell viability in 96 well cell culture plate Cells were treated with Sanguinarine chloride for 48 h and cell viability was evaluated by MTT assay. DMSO-treated cells were set as 1. The results shown are mean±SEM from 3 independent experiments.
For orientation: Tetrazolium assays rely on reduction of a dye to a coloured formazan, in cell work by metabolically active cells.

Data set [12] concerns KRAS dependent cells. Briefly: MTT assay for cell viability. The data set is classed as cell-based. The settings on record: 48 h, irrespective of the presence of mutation. As to the method:
as §7

Data set [13] relates to BaF3 KRAS G12C. Briefly: MTT assay for cell viability. In kind it is cell-based. The settings on record: Mus musculus, 48 h, 3 independent experiments. As for the experimental part: as §7
In data set [14] the test system is sNF96.2. Briefly: RASOpathie-Model; MTT assay for cell viability. In kind it is cell-based. The settings on record: sNF96.2, 48 h. As for the experimental part: FIG. 5: RASOpathie-Model Sanguinarine chloride; MTT assay for cell viability in 96 well cell culture plate
Cells were treated with Sanguinarine chloride for 48 h and cell viability was evaluated by MTT assay. DMSO-treated cells were set as 1. The results shown are mean±SEM from 3 independent experiments.

Data set [15] has as its target T3, HRAS G12V (Homo sapiens, UniProt P01112, G12V).
T3 construct: CRAF RBD (1-149) fused to SmBiT; transfected cells (HeLa S3 likely), NanoBiT
Briefly: NanoBit assay for RAS activation (LgBiT-HRAS G12V / SmBiT-CRAF RBD). The data set is classed as cell-based. The settings on record: 2 h with inhibitor, serum free DMEM. As to the method: as §5, §6, §4

Data set [16] relates to Na+/K+-ATPase transmembrane protein. The settings on record: through action on the Na+/K+-ATPase; cited from earlier work.

T2 sequence (P01111 1-186 G12V): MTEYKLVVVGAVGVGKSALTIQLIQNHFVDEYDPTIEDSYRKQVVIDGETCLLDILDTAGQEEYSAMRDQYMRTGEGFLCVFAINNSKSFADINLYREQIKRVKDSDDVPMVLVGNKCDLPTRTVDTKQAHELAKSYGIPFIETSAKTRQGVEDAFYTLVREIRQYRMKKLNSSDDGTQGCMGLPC
T3 sequence (P01112 1-186 G12V): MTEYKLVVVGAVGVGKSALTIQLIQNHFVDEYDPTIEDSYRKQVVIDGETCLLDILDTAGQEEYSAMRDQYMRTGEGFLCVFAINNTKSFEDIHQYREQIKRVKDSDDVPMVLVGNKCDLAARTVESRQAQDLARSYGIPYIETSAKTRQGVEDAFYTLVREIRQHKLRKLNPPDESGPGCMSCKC

In general, IC50 refers to the concentration at which inhibition is half-maximal. A higher IC50 goes with lower potency. Regarding `C[n+]1cc2c3c(ccc2c2ccc4cc5c(cc4c21)OCO5)OCO3.[Cl-]` [Sanguinarine chloride, 13-Methyl-[1,3]benzodioxolo[5,6-c]-1,3-dioxolo[4,5-i]phenanthridinium chloide], the IC50 in [1] came to 1450 nM; in [5], 530 nM; in data set [6], 1020 nM; in data set [7] it was 970 nM; in data set [8], 870 nM; in data set [9], 1550 nM. Also, the results for the IC50 in data set [11], in data set [13] and in data set [14] (3 independent experiments) were 1760 nM, 1190 nM and 1390 nM, respectively. Further, the “inhibition of K-RAS activation” value in data set [2] is “inhibits”. For the same compound, in data set [3], the “inhibition of N-RAS activation” value is “inhibits”. For the same compound, in data set [4], the “growth of RAS-isoform addicted cell-lines” value was “blocks the growth of different RAS-isoform addicted cell-lines and stops the growth of cancer”. In data set [10], the “inhibition of different RAS-isoforms (RAS GTP-loading)” value was “inhibits different RAS-isoforms”. Moreover, in data set [12], the “inhibition of KRAS dependent cells” value is “inhibits KRAS dependent cells irrespective of the presence of mutation”. For the same compound, the “inhibition of RAS protein of RASOpathie” value in [14] (MTT) is on record as “inhibits RAS protein of RASOpathie”. Also, in data set [15], the “inhibition of H-RAS activation” value was “inhibits”.

In the case of `C[n+]1cc2c3c(ccc2c2ccc4cc5c(cc4c21)OCO5)OCO3` [Sanguinarine, 13-Methyl[1,3]benzodioxolo[5,6-c]-1,3-dioxolo[4,5-J]phenanthridinium], the “toxicity to animal cells” value in data set [16] is recorded as “kills animal cells through its action on the Na+/K+-ATPase transmembrane protein”.
